Where only a bound is given, the exact number is not on record here.

For this assay, the system named is pAMPK. The assay is described as follows: pAMPK immunostaining chemiluminescence assay in Beas2B cells. It counts as cell-based. The conditions noted are these: Homo sapiens, BEAS-2B, 18 h, DMEM no glucose media, compounds 3-34, 36-44, 47-60 tested as HCl salts, read-out: efficacy (minimal compound concentration needed to increase pAMPK by 30%). As to the method: Beas2B cells were plated in 384 white nunc plate (4000 cells per well) for overnight. Compounds were serially diluted in DMEM no glucose media using the liquid handler. Cells were washed once using Biotek EL406 before compound addition for additional 18 hours. Cells were washed and fixed with PFA before immunostained with pAMPK primary antibody and anti-Rabbit HRP secondary antibody. Finally, 25 μl of ECL reagent will be added to cells, and chemical luminescence signal will be counted using plate reader. Compounds efficacies (μM) were determined by the minimal compound concentration needed to increase pAMPK by 30%. Activity: “+” equals >10 μM; “++” equals between ≤10 μM and >1 μM; and “+++” equals ≤1 μM.
Take `Cc1ccccc1CN(CC(O)COc1ccc(C(F)(F)F)cc1)C(=O)c1cocn1` (centres unmarked) [compound 78]: the EC (30% increase) was no more than 1 µM.

On to `Cc1ccccc1CN(CC(O)COc1ccc(C(F)(F)F)cc1)C(=O)c1cnco1` (centres unmarked) [compound 79], for which the EC (30% increase) was 1 to 10 µM.

As to `Cc1ccccc1CN(CC(O)COc1ccc(C(F)(F)F)cc1)C(=O)c1cn(C)cn1` (centres unmarked) [compound 80], the EC (30% increase) lay within 1 to 10 µM.

As for `Cc1ccccc1CN(CC(O)COc1ccc(C(F)(F)F)cc1)C(=O)c1cncn1C` (centres unmarked) [compound 81], the EC (30% increase) was no more than 1 µM.

For `Cc1ccccc1CN(CC(O)COc1ccc(C(F)(F)F)cc1)C(=O)c1cnn(C)c1` (centres unmarked) [compound 82], the EC (30% increase) was no more than 1 µM.

For the compound `Cc1ccccc1CN(CC(O)COc1ccc(C(F)(F)F)cc1)C(=O)c1nccn1C` (centres unmarked) [compound 83], the EC (30% increase) is no more than 1 µM.

As to `Cc1ccccc1CN(CC(O)COc1ccc(C(F)(F)F)cc1)C(=O)c1nccs1` (centres unmarked) [compound 84], the EC (30% increase) was no more than 1 µM.

For the compound `Cc1ccccc1CN(CC(O)COc1ccc(C(F)(F)F)cc1)C(=O)c1cscn1` (centres unmarked) [compound 85], the EC (30% increase) was in the range of 1 to 10 µM.

As for `Cc1ccccc1CN(Cc1cnccc1C(F)(F)F)CC(O)COc1ccccc1` (centres unmarked) [compound 87], the EC (30% increase) is 1 to 10 µM.

Take `Cc1ccccc1CN(CC(O)COc1ccccc1)C(=O)c1ccc(C(F)(F)F)nc1` (centres unmarked) [compound 88]: the EC (30% increase) was no more than 1 µM.

With `Cc1ccccc1CN(CC(O)COc1ccc(C(F)(F)F)cc1)C(=O)c1c[nH]nc1C` (centres unmarked) [compound 89], the EC (30% increase) lay in the range of 1 to 10 µM.

As to `O=C(c1cncs1)N(Cc1ccccc1Cl)CC(O)COc1ccc(C(F)(F)F)cc1` (centres unmarked) [compound 90], the EC (30% increase) is no more than 1 µM.

Turning to `Cn1ccnc1C(=O)N(Cc1ccccc1Cl)CC(O)COc1ccc(C(F)(F)F)cc1` (centres unmarked) [compound 91], the EC (30% increase) was no more than 1 µM.

In the case of `FC(F)(F)c1ccc(OCCCc2nc3ccccc3cc2-c2ccccc2)cc1` [compound 92], the EC (30% increase) lay in the range of 1 to 10 µM.

Take `OC(COc1ccc(C(F)(F)F)cc1)CN1CCc2ccccc2C1c1cncs1` (centres unmarked) [compound 93]: the EC (30% increase) was 1 to 10 µM.

Take `[2H]C1(c2cncs2)c2ccccc2CCN1CC(O)COc1ccc(C(F)(F)F)cc1` (centres unmarked) [compound 94]: the EC (30% increase) lay in the range of 1 to 10 µM.

For `OC(COc1ccc(C(F)(F)F)cc1)CN1CCc2ccccc2C1c1cccnc1` (centres unmarked) [compound 95], the EC (30% increase) is no more than 1 µM.

In the case of `[2H]C1(c2cccnc2)c2ccccc2CCN1CC(O)COc1ccc(C(F)(F)F)cc1` (centres unmarked) [compound 96], the EC (30% increase) was no more than 1 µM.

Regarding `OC(COc1ccc(C(F)(F)F)cc1)CN1Cc2ccccc2CC1c1cncs1` (centres unmarked) [compound 98], the EC (30% increase) was in the range of 1 to 10 µM.

Consider `[2H]C1(c2cncs2)c2ccccc2CCN1CCCOc1ccc(C(F)(F)F)cc1` (centres unmarked) [compound 99], for which the EC (30% increase) was no more than 1 µM.

Take `FC(F)(F)c1ccc(OCCCN2CCc3ccccc3C2c2cccnc2)cc1` (centres unmarked) [compound 100]: the EC (30% increase) was no more than 1 µM.

`[2H]C1(c2cccnc2)c2ccccc2CCN1CCCOc1ccc(C(F)(F)F)cc1` (centres unmarked) [compound 101]: the EC (30% increase) was no more than 1 µM.

For `[2H]C([2H])(c1cccnc1)N(Cc1ccccc1Cl)CC(O)COc1ccc(C(F)(F)F)cc1` (centres unmarked) [compound 102], the EC (30% increase) is no more than 1 µM.

Turning to `O=C(COc1ccc(C(F)(F)F)cc1)Cc1nc2ccccc2cc1-c1cccnc1` [compound 103], the EC (30% increase) was greater than 10 µM.

As to `FC(F)(F)c1ccc(OCCCN(Cc2cncs2)Cc2ccccc2Cl)cc1` [compound 104], the EC (30% increase) is no more than 1 µM.

With `Cc1ccccc1CN(CCCOc1ccc(C(F)(F)F)cc1)Cc1nccn1C` [compound 105], the EC (30% increase) is no more than 1 µM.

Turning to `Cn1ccnc1CN(CCCOc1ccc(C(F)(F)F)cc1)Cc1ccccc1Cl` [compound 106], the EC (30% increase) was no more than 1 µM.

For the compound `FC(F)(F)c1ccc(OCCCN2CCc3ccccc3C2c2cncs2)cc1` (centres unmarked) [compound 107], the EC (30% increase) was no more than 1 µM.

Turning to `Cn1cncc1C(=O)N(Cc1ccccc1Cl)CC(O)COc1ccc(C(F)(F)F)cc1` (centres unmarked) [compound 108], the EC (30% increase) was no more than 1 µM.

As to `Cc1ccccc1CN(CCCOc1ccc(C(F)(F)F)cc1)C(=O)c1cncn1C` [compound 109], the EC (30% increase) was no more than 1 µM.

Take `Cc1ccccc1CN(CCCOc1ccc(C(F)(F)F)cc1)C(=O)c1ccccc1` [compound 110]: the EC (30% increase) is no more than 1 µM.

For the compound `OC(COc1ccc(C(F)(F)F)cc1)CN1CCc2ccccc2[C@@H]1c1ccccc1` (some centres unmarked) [compound 111], the EC (30% increase) lay in the range of 1 to 10 µM.

For `O[C@@H](COc1ccc(C(F)(F)F)cc1)CN1CCc2ccccc2[C@@H]1c1ccccc1` [compound 112], the EC (30% increase) was no more than 1 µM.

Consider `O[C@H](COc1ccc(C(F)(F)F)cc1)CN1CCc2ccccc2[C@@H]1c1ccccc1` [compound 113], for which the EC (30% increase) lay in the range of 1 to 10 µM.

In the case of `OC(COc1ccc(C(F)(F)F)cc1)CN1CCc2ccccc2[C@H]1c1ccccc1` (some centres unmarked) [compound 114], the EC (30% increase) was greater than 10 µM.

With `O[C@H](COc1ccc(C(F)(F)F)cc1)CN1CCc2ccccc2[C@H]1c1ccccc1` [compound 115], the EC (30% increase) was 1 to 10 µM.

Regarding `O[C@@H](COc1ccc(C(F)(F)F)cc1)CN1CCc2ccccc2[C@H]1c1ccccc1` [compound 116], the EC (30% increase) is greater than 10 µM.

With `Cc1ccccc1CN(Cc1cccnc1)C(=O)C(O)COc1ccc(C(F)(F)F)cc1` (centres unmarked) [compound 117], the EC (30% increase) lay within 1 to 10 µM.

`Cc1ccccc1CN(CC(O)COc1ccc(C(F)(F)F)cc1)C(C)c1cccnc1` (centres unmarked) [compound 118]: the EC (30% increase) was greater than 10 µM.

On to `Cc1ccccc1CN(CCCOc1ccc(C(F)(F)F)cc1)Cc1cncn1C` [compound 119], for which the EC (30% increase) was no more than 1 µM.

For the compound `Cc1ccccc1CN(Cc1cccnc1)CC(C)(C)COc1ccc(C(F)(F)F)cc1` [compound 121], the EC (30% increase) was no more than 1 µM.

For `Cn1cncc1CN(CCCOc1ccc(C(F)(F)F)cc1)Cc1ccccc1Cl` [compound 122], the EC (30% increase) is no more than 1 µM.

Regarding `Cc1ccccc1CN(CC(=O)COc1ccc(C(F)(F)F)cc1)C(=O)c1cccnc1` [compound 123], the EC (30% increase) was in the range of 1 to 10 µM.

As to `FC(F)(F)c1ccc(OCCCN2Cc3ccccc3CC2c2cncs2)cc1` (centres unmarked) [compound 124], the EC (30% increase) was in the range of 1 to 10 µM.

Take `Cn1cncc1C(=O)N(CCCOc1ccc(C(F)(F)F)cc1)Cc1ccccc1Cl` [compound 125]: the EC (30% increase) is no more than 1 µM.

On to `CC(=O)OC(COc1ccc(C(F)(F)F)cc1)C(=O)N(Cc1cncs1)Cc1ccccc1Cl` (centres unmarked) [compound 126], for which the EC (30% increase) is greater than 10 µM.

`CC(=O)OC(COc1ccc(C(F)(F)F)cc1)C(=O)N(Cc1cccnc1)Cc1ccccc1Cl` (centres unmarked) [compound 127]: the EC (30% increase) is no more than 1 µM.

For the compound `OC(COc1ccc(C(F)(F)F)cc1)CN1Cc2ccccc2C[C@@H]1c1cccnc1` (some centres unmarked) [compound 129], the EC (30% increase) is no more than 1 µM.

Consider `O[C@@H](COc1ccc(C(F)(F)F)cc1)CN1Cc2ccccc2C[C@@H]1c1cccnc1` [compound 130], for which the EC (30% increase) was no more than 1 µM.

`O[C@H](COc1ccc(C(F)(F)F)cc1)CN1Cc2ccccc2C[C@@H]1c1cccnc1` [compound 131]: the EC (30% increase) is no more than 1 µM.

With `OC(COc1ccc(C(F)(F)F)cc1)CN1Cc2ccccc2C[C@H]1c1cccnc1` (some centres unmarked) [compound 132], the EC (30% increase) is no more than 1 µM.

With `O[C@H](COc1ccc(C(F)(F)F)cc1)CN1Cc2ccccc2C[C@H]1c1cccnc1` [compound 133], the EC (30% increase) was no more than 1 µM.

For `O[C@@H](COc1ccc(C(F)(F)F)cc1)CN1Cc2ccccc2C[C@H]1c1cccnc1` [compound 134], the EC (30% increase) was no more than 1 µM.

On to `[2H]C([2H])(c1cccnc1)N(CCCOc1ccc(C(F)(F)F)cc1)Cc1ccccc1C` [compound 135], for which the EC (30% increase) was no more than 1 µM.

For the compound `FC(F)(F)c1ccc(OCCCN(Cc2ccccc2)Cc2cccnc2)cc1` [compound 136], the EC (30% increase) was no more than 1 µM.

As to `O=C(C(O)COc1ccc(C(F)(F)F)cc1)N(Cc1cccnc1)Cc1ccccc1Cl` (centres unmarked) [compound 137], the EC (30% increase) was no more than 1 µM.

Take `CC(c1cccnc1)N(Cc1ccccc1Cl)CC(O)COc1ccc(C(F)(F)F)cc1` (centres unmarked) [compound 138]: the EC (30% increase) is greater than 10 µM.

For the compound `O=C(c1cccnc1)N(Cc1ccccc1Cl)CC(O)COc1ccc(C(F)(F)F)cc1` (centres unmarked) [compound 141], the EC (30% increase) was no more than 1 µM.

As to `FC(F)(F)c1ccc(OCC2(CN(Cc3cccnc3)Cc3ccccc3Cl)CC2)cc1` [compound 142], the EC (30% increase) was no more than 1 µM.

In the case of `Fc1ccccc1CN(Cc1cccnc1)CC1(COc2ccc(C(F)(F)F)cc2)CC1` [compound 143], the EC (30% increase) was no more than 1 µM.

Take `Cn1cncc1C(=O)N(Cc1c(Cl)cccc1Cl)CC(O)COc1ccc(C(F)(F)F)cc1` (centres unmarked) [compound 144]: the EC (30% increase) was in the range of 1 to 10 µM.

For the compound `Cn1cncc1C(=O)N(Cc1ccccc1C(F)(F)F)CC(O)COc1ccc(C(F)(F)F)cc1` (centres unmarked) [compound 145], the EC (30% increase) is 1 to 10 µM.

As to `Cc1ncccc1CN(CC(O)COc1ccc(C(F)(F)F)cc1)C(=O)c1cncn1C` (centres unmarked) [compound 146], the EC (30% increase) was greater than 10 µM.

On to `Cn1cncc1CN(Cc1ccccc1Cl)CC(O)COc1ccc(F)cc1F` (centres unmarked) [compound 147], for which the EC (30% increase) was greater than 10 µM.

Consider `Cn1cncc1C(=O)N(Cc1ccccc1Cl)CC(O)COc1cnc(C(F)(F)F)nc1` (centres unmarked) [compound 148], for which the EC (30% increase) was greater than 10 µM.

Regarding `Cn1ccnc1C1Cc2ccccc2CN1CC(O)COc1ccc(C(F)(F)F)cc1` (centres unmarked) [compound 149], the EC (30% increase) was in the range of 1 to 10 µM.

Regarding `FC(F)(F)c1ccc(OCCCN2Cc3ccccc3C[C@@H]2c2cccnc2)cc1` [compound 150], the EC (30% increase) was 1 to 10 µM.

Turning to `FC(F)(F)c1ccc(OCCCN2Cc3ccccc3C[C@H]2c2cccnc2)cc1` [compound 151], the EC (30% increase) is no more than 1 µM.

These data come from US12428378B2, “Methods and materials for increasing level of phosphorylated AMPK protein” (University of Pittsburgh—Of the Commonwealth System of …, priority 2019, dated 2025).
